Results on four compounds are retold here after patent US4129721A, “A-40104 antibiotics and process for production thereof” (priority 1977, dated 1978).

≈ marks a conversion by molar mass, not a printed value. Where two headings read alike, the source gives them in different places.

The ED50 is the midpoint of the dose-response relation. By LD50 is commonly meant the dose expected to kill half of the subjects tested. Read a high LD50 as a less toxic substance.

The test system of series [1] is Streptococcus sp. X-66 (Group D). The series is described as follows: gradient-plate agar-dilution method. The format is cell-based.
Series [2] concerns Neisseria gonorrhea Sand. The series is described as follows: gradient-plate agar-dilution method. Format: cell-based.
The subject of series [3] is Streptococcus sp. 9960 (Group D). The series is described as follows: gradient-plate agar-dilution method. The format is cell-based.
Series [4] deals with Hemophilus influenzae Brun. The experiment in a line: gradient-plate agar-dilution method. Particulars: Haemophilus influenzae. Format: cell-based.
Series [5] deals with Hemophilus influenzae 259. The series is described as follows: gradient-plate agar-dilution method. Particulars: Haemophilus influenzae. The format is cell-based.
Series [6] has as its system Hemophilus influenzae 251. The experiment in a line: gradient-plate agar-dilution method. The format is cell-based. The following applies: Haemophilus influenzae.
For series [7], the system named is Hemophilus influenzae 260. The experiment in a line: gradient-plate agar-dilution method. Format: cell-based. Particulars: Haemophilus influenzae.
The test system of series [8] is Hemophilus influenzae Dick. The series is described as follows: gradient-plate agar-dilution method. Format: cell-based. The following applies: Haemophilus influenzae.
The subject of another series is Streptococcus pyogenes. The experiment in a line: gradient-plate agar-dilution method. Format: cell-based.
Series [9] has as its system Neisseria gonorrhea Lind. The series is described as follows: gradient-plate agar-dilution method. Format: cell-based.
Series [10] deals with Staphylococcus aureus 3055. The series is described as follows: experimental bacterial infection in mice. The format is in vivo. Particulars: two doses, read-out: ED50 × 2.
The subject of series [11] is Pasteurella multocida (bovine). The series is described as follows: standard in vitro tests, Pasteurella. The format is cell-based. From the text:
(§1) Another veterinary aspect of this invention is the activity of the A-40104 antibiotics against Pasteurella species. P. multocida, for example, is a causative agent of respiratory infection in cattle, poultry, and swine. P. hemolytica is a major cause of respiratory disease in cattle. The activity of A-40104 factor A and its dihydro derivative against Pasteurella, as determined by standard in vitro tests, is summarized in Table X.

The subject of a further series is Pasteurella hemolytica. The series is described as follows: standard in vitro tests, Pasteurella. Format: cell-based.
Excerpt: as §1

Series [12] concerns Streptococcus pneumoniae Bi-343. The series is described as follows: experimental bacterial infection in mice. Format: in vivo. The following applies: BI343, sc, two doses, challenge 30 × LD50 (ip), read-out: ED50 × 2.
For series [13], the system named is Streptococcus pyogenes C203. The series is described as follows: experimental bacterial infection in mice. Format: in vivo. Particulars: sc, two doses, challenge 1,690 × LD50 (ip), read-out: ED50 × 2.
In series [14] the test system is Streptococcus pneumoniae BI-492. The series is described as follows: experimental bacterial infection in mice. Format: in vivo. The following applies: BI492, sc, two doses, challenge 340 × LD50 (ip), read-out: ED50 × 2.
The subject of another series is Mycoplasma hyopneumoniae. The series is described as follows: in vitro broth-dilution studies, mycoplasma. Format: cell-based. An excerpt: (§2) The minimal inhibitory concentrations (MIC's) of A-40104 factor A; 19,20-dihydro-A-40104 factor A; and the tetraacetyl derivative of A-40104A against various mycoplasma species, as determined by in vitro broth-dilution studies, are summarized in Table IX.

The test system of another series is Mycoplasma gallisepticum. The experiment in a line: in vitro broth-dilution studies, mycoplasma. Format: cell-based.
Excerpt: as §2

The next series relates to Mycoplasma synoviae. The series is described as follows: in vitro broth-dilution studies, mycoplasma. The format is cell-based.
Excerpt: as §2

In another series the test system is Mycoplasma hyorhinis. The series is described as follows: in vitro broth-dilution studies, mycoplasma. Format: cell-based.
Excerpt: as §2

For series [15], the system named is experimental bacterial infections. The series is described as follows: experimental bacterial infections in mice (general statement). Format: in vivo. The method, then: When two doses of these compounds were administered to mice in illustrative infections, the activity observed was measured as an ED50 value [effective dose in mg./kg. to protect 50 percent of the test animals; see Warren Wick, et al., J. Bacteriol. 81, 233-235 (1961)].

Series [16] is described as follows: acute toxicity, intraperitoneal injection in mice. Particulars: mouse, in vivo, ip. From the text: A special advantage of the A-40104 antibiotics is that they are relatively nontoxic.
A further series has as its system swine dysentery. Particulars: W. E. Brown et al., U.S. Pat. No. 4,041,175; cited from earlier work.

Consider `CC1(C)S[C@@H]2[C@H](NC(=O)[C@H](N)c3ccccc3)C(=O)N2[C@H]1C(=O)O` [Ampicillin, reference compound], for which the MIC in series [1] came to 0.8 µg/mL (≈ 2.29 µM); in [2] it was 0.07 µg/mL (≈ 0.2 µM); in [3] it was 0.6 µg/mL (≈ 1.72 µM); in series [4], 0.5 µg/mL (≈ 1.43 µM); in series [5], 70 µg/mL (≈ 200 µM); in series [6], 70 µg/mL (≈ 200 µM). Moreover, the MIC in series [7] was 70 µg/mL (≈ 200 µM); in series [8], 0.5 µg/mL (≈ 1.43 µM); with Streptococcus pyogenes, under 0.01 µg/mL; in series [9], 0.5 µg/mL (≈ 1.43 µM).
As to `CCC1(C)CC(OC(=O)CO[C@@H]2OC[C@@H](O)[C@H](O)[C@H]2O)C2(C)C(C)CCC3(CCC(=O)C32)C(C)C1O` (some centres unmarked) [Dihydro-A-40104A, 19,20-dihydro A-40104 factor A], the ED50 is 27 mg/kg in [10] (Staphylococcus aureus, 3055, po, oral, challenge 500 × LD50 (ip)); 28 mg/kg in series [10] (Staphylococcus aureus, 3055, po, oral, challenge 3,400 × LD50 (ip)); at most 4.4 mg/kg in series [10] (Staphylococcus aureus, 3055, sc, sc, challenge 69.5 × LD50 (ip)); 35 mg/kg in series [12]; 5.8 mg/kg in series [13]; 15.2 mg/kg in [14]. Besides, the results for the MIC (in [11]; in the series with Pasteurella hemolytica) were 6.25 µg/mL (≈ 12.2 µM) and 16.5 µg/mL (≈ 32.2 µM), respectively. Also, the “minimal inhibitory concentration (MIC)” value was determined as 0.097 in the series on Mycoplasma hyopneumoniae, 0.195 in the series on Mycoplasma gallisepticum, 0.195 in the series with Mycoplasma synoviae and 0.195 in the series on Mycoplasma hyorhinis. For the same compound, the “in vivo antimicrobial activity” value in [15] was “have shown in vivo antimicrobial activity”.
For `C=CC1(C)CC(OC(=O)CO[C@@H]2OC[C@@H](OC(C)=O)[C@H](OC(C)=O)[C@H]2OC(C)=O)C2(C)C(C)CCC3(CCC(=O)C32)C(C)C1OC(C)=O` (some centres unmarked) [Tetraacetyl A-40104A, tetraacetyl derivative of A-40104 factor A], the LD50 in series [16] is over 300 mg/kg. Besides, the “minimal inhibitory concentration (MIC)” value stood at 12.5 with Mycoplasma hyopneumoniae, 12.5 in the series on Mycoplasma gallisepticum, 50.0 in the series on Mycoplasma synoviae and 25.0 in the series with Mycoplasma hyorhinis.
For `C=C[C@]1(C)C[C@@H](OC(=O)CO)[C@]2(C)[C@H](C)CC[C@]3(CCC(=O)[C@H]32)[C@@H](C)[C@@H]1O` [pleuromutilin], the “effect in treatment of swine dysentery” value in the series with swine dysentery is recorded as “effective in the treatment of swine dysentery”.
